{"source": "ChEMBL document CHEMBL5537122", "about": "“Design, synthesis, and biological evaluation of 4-(2-fluorophenoxy)-7-methoxyquinazoline derivatives as dual EGFR/c-Met inhibitors for the treatment of NSCLC” (Eur J Med Chem, 2024)", "key": {"[1]": {"experiment": "Hepatotoxicity in KM mouse assessed as alkaline phosphatase level at 100 mg/kg, IG qd administered for 7 days by automatic biochemical analyzer", "assay_type": "toxicity, organism-based", "details": "in vivo, po, 168 h, time 7 day"}, "A549 [2]": {"test_system": "A549", "experiment": "Induction in apoptosis in human A549 cells overexpressing c-MET assessed as necrotic cells at 1 uM incubated for 24 hrs by Annexin V-FITC/Propidium Iodide staining based flow cytometry analysis (reference value: 3.22 %)", "assay_type": "functional"}, "[3]": {"molecular_target": "Macrophage-stimulating protein receptor (Homo sapiens) (UniProt Q04912)", "sequence (Q04912 25-304 limits assumed)": "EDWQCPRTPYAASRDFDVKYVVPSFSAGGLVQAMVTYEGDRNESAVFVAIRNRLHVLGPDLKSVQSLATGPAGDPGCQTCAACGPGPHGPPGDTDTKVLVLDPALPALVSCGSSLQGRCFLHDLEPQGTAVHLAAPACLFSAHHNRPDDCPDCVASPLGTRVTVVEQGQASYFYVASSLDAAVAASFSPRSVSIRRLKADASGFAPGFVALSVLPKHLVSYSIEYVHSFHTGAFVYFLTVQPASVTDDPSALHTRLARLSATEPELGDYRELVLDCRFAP", "sequence (Q04912 310-1400 limits assumed)": "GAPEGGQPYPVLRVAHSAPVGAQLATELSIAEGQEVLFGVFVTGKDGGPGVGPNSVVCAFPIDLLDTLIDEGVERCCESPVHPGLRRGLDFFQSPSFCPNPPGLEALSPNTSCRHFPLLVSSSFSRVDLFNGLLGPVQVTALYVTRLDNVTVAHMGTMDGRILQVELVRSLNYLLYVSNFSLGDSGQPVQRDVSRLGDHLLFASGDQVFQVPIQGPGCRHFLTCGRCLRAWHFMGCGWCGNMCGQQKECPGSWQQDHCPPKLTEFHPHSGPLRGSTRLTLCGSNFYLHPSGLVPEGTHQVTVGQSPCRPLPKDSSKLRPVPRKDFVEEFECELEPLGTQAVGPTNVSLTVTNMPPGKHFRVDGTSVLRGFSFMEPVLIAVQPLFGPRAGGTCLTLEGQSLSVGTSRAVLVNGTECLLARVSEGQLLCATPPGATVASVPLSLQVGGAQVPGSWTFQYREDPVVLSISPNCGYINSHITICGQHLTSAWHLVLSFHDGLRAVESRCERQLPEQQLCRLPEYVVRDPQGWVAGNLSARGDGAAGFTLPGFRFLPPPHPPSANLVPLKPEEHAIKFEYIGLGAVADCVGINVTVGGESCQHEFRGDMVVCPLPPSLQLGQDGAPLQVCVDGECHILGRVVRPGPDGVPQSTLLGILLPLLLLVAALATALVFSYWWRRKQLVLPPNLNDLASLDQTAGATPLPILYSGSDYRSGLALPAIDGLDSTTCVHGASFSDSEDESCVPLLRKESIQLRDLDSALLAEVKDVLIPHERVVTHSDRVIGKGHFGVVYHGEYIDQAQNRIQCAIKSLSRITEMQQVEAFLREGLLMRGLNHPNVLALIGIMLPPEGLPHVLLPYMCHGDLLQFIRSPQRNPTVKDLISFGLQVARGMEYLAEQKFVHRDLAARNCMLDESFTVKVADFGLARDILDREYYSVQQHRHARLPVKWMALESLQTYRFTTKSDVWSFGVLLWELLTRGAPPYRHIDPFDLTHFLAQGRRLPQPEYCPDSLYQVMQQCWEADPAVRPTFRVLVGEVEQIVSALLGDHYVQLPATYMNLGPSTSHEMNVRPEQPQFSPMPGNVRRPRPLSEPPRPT", "experiment": "Inhibition of RON (unknown origin) at 10 uM"}, "A549 [4]": {"test_system": "A549", "experiment": "Inhibition of colony formation in human A549 cells overexpressing c-MET at 1 uM preincubated for 48 hrs followed by media replacement for every 2 days for 14 days by crystal violet staining based microscopic analysis relative to control", "assay_type": "functional"}, "[5]": {"experiment": "Toxicity in BALB/c nude mouse xenografted with human A549 cells overexpressing c-MET assessed as change in body weight at 40 to 60 mg/kg, IG and measured for 24 days", "assay_type": "organism-based", "details": "in vivo, po, 576 h, dose 40-60 mg/kg, time 24 day"}, "A549 [6]": {"test_system": "A549", "experiment": "Induction in apoptosis in human A549 cells overexpressing c-MET assessed as necrotic cells at 2.5 uM incubated for 24 hrs by Annexin V-FITC/Propidium Iodide staining based flow cytometry analysis (reference value: 3.22 %)", "assay_type": "functional"}, "L02": {"test_system": "L02", "experiment": "Induction in apoptosis in human L02 cells assessed as early apoptotic cells at 1 uM incubated for 24 hrs by Annexin V-FITC/Propidium Iodide staining based flow cytometry analysis (reference value: 0.26 %)", "assay_type": "toxicity, cell-based", "details": "l02, 24 h"}, "NCI-H1975 [7]": {"test_system": "NCI-H1975", "experiment": "Inhibition of colony formation in human NCI-H1975 cells at 1 uM preincubated for 48 hrs followed by media replacement for every 2 days for 14 days by crystal violet staining based microscopic analysis relative to control", "assay_type": "functional"}, "[8]": {"molecular_target": "Epidermal growth factor receptor (Homo sapiens, UniProt P00533)", "experiment": "Inhibition of wild type EGFR (unknown origin) at 10 uM relative to control"}, "A549 [9]": {"test_system": "A549", "experiment": "Induction in apoptosis in human A549 cells overexpressing c-MET assessed as viable cells at 2.5 uM incubated for 24 hrs by Annexin V-FITC/Propidium Iodide staining based flow cytometry analysis (reference value: 81.92 %", "assay_type": "functional", "details": "read-out: Activity"}, "A549 [10]": {"test_system": "A549", "experiment": "Induction of apoptosis in human A549 cells overexpressing c-MET assessed as reduction in red fluorescence intensity incubated for 24 hrs by JC-1 staining based fluorescence inverted microscopic analysis", "assay_type": "functional, cell-based", "details": "dose 1-2.5 µM"}, "[11]": {"experiment": "Acute toxicity in KM mouse assessed as effect on glucose level at 100 mg/kg, IG qd administered for 7 days by automatic biochemical analyzer", "assay_type": "organism-based", "details": "in vivo, po, 168 h, time 7 day"}, "[12]": {"molecular_target": "Vascular endothelial growth factor receptor 1 (Homo sapiens) (UniProt P17948)", "sequence (P17948 whole entry)": "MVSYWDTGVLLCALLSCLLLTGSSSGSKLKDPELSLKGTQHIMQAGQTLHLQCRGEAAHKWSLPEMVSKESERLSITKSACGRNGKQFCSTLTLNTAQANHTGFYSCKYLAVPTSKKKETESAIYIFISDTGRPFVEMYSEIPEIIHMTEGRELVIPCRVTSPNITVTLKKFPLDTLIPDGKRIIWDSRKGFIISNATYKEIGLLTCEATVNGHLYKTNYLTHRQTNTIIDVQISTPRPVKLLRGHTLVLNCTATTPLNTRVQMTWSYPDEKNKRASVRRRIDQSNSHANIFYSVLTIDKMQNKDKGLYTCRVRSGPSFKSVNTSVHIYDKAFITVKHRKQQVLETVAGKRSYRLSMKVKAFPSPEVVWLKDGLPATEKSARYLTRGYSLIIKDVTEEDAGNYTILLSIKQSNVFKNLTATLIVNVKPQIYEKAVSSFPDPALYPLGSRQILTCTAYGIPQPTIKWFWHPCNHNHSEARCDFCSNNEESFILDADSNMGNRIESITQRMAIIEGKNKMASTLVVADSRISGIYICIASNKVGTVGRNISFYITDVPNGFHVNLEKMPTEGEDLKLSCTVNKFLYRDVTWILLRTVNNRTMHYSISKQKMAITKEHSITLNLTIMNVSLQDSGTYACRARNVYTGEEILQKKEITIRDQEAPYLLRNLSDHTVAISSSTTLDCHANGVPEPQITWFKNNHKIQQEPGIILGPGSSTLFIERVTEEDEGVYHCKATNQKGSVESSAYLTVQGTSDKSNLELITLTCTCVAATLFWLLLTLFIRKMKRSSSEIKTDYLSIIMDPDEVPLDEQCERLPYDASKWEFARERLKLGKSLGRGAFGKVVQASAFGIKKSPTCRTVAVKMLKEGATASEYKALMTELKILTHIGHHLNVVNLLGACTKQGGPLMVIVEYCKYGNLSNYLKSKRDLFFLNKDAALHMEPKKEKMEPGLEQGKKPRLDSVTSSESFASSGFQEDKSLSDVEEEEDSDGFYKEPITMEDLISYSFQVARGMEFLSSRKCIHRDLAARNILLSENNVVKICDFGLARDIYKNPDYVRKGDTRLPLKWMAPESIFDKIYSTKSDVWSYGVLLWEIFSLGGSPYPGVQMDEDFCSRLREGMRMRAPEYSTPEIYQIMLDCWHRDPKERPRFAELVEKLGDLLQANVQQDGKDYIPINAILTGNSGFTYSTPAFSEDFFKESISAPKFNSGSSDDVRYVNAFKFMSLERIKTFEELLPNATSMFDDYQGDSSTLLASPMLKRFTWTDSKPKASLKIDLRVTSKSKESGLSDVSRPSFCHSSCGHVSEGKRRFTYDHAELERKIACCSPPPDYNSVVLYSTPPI", "experiment": "Inhibition of FLT1 (unknown origin) at 10 uM"}, "NCI-H1975 [13]": {"test_system": "NCI-H1975", "experiment": "Antimigratory activity against EGF-induced cell migration in serum starved human NCI-H1975 cells assessed as increase in width of artificial gap incubated for 24 hrs by wound healing assay", "assay_type": "functional, cell-based", "details": "dose 1-2.5 µM"}, "A549 [14]": {"test_system": "A549", "experiment": "Induction of cell cycle arrest in human A549 cells overexpressing c-MET assessed as accumulation of cells at G1/G0 phase at 2.5 uM incubated for 24 hrs by RNase A/propidium iodide staining based flow cytometric analysis (reference value: 49.24 %)", "assay_type": "functional"}, "[15]": {"experiment": "Cardiotoxicity in KM mouse assessed as effect on creatine kinase level at 100 mg/kg, IG qd administered for 7 days by automatic biochemical analyzer", "assay_type": "toxicity, organism-based", "details": "in vivo, po, 168 h, time 7 day"}, "NCI-H1975 [16]": {"test_system": "NCI-H1975", "experiment": "Induction in apoptosis in human NCI-H1975 cells assessed as necrotic cells at 2.5 uM incubated for 24 hrs by Annexin V-FITC/Propidium Iodide staining based flow cytometry analysis (reference value: 1.42 %)", "assay_type": "functional"}, "[17]": {"molecular_target": "Fibroblast growth factor receptor 1 (Homo sapiens) (UniProt P11362)", "experiment": "Inhibition of FGFR1 (unknown origin) at 10 uM"}, "[18]": {"molecular_target": "Hepatocyte growth factor receptor (Homo sapiens, UniProt P08581)", "sequence (P08581 whole entry)": "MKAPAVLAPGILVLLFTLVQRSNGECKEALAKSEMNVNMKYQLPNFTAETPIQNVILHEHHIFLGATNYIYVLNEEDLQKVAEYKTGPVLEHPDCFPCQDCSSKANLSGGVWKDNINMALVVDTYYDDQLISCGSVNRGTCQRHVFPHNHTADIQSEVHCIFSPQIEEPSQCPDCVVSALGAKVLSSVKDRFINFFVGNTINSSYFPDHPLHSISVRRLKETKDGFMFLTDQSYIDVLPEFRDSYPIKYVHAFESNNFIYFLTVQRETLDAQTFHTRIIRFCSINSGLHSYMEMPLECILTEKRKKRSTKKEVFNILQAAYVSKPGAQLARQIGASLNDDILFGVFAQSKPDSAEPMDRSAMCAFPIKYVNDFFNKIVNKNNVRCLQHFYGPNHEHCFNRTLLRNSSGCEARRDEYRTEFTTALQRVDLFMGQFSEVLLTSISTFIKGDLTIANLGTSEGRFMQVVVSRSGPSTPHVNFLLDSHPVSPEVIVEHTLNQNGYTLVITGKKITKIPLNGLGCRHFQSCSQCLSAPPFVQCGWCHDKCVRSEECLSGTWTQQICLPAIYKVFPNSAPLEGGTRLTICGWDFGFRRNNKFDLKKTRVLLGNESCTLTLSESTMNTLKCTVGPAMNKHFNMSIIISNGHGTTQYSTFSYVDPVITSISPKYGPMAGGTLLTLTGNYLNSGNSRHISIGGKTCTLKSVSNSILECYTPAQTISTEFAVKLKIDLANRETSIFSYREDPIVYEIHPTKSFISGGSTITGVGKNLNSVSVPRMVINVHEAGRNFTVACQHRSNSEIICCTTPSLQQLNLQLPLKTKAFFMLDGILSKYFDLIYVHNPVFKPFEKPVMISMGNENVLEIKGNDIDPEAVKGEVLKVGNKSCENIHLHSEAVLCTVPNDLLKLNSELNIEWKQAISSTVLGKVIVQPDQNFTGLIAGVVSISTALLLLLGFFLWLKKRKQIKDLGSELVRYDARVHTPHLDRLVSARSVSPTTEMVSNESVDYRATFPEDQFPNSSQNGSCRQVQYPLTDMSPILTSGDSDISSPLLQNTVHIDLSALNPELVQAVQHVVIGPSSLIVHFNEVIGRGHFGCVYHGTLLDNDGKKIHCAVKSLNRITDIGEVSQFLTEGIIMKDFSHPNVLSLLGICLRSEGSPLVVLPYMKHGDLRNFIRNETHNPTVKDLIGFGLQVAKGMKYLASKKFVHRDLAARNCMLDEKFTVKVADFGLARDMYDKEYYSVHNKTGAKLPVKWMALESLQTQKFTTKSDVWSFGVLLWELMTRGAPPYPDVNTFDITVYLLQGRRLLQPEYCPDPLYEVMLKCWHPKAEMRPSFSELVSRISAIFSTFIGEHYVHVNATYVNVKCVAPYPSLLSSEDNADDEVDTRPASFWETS", "experiment": "Potency index, ratio of foretinib IC50 to test compound IC50 for inhibition of N-terminal GST tagged human recombinant c-Met (956 to end residues) expressed in baculovirus infected Sf9 cells using Poly (4:1 Glu, Tyr) as substrate incubated for 60 mins in presence of ATP by ADP-Glo luminescent assay"}, "A549 [19]": {"test_system": "A549", "experiment": "Downregulation of phosphorylated EGFR protein expression level human A549 cells overexpressing c-MET incubated for 24 hrs by Western blotting analysis", "assay_type": "functional, cell-based", "details": "dose 1-10 µM"}, "A549 [20]": {"test_system": "A549", "experiment": "Antitumor activity against human A549 cells overexpressing c-MET xenografted in BALB/c nude mouse assessed as reduction in tumor volume at 60 mg/kg, IG qod measured for 24 days", "assay_type": "functional, organism-based", "details": "time 24.0 day"}, "[21]": {"molecular_target": "Receptor-type tyrosine-protein kinase FLT3 (Homo sapiens) (UniProt P36888)", "experiment": "Inhibition of FLT3 (unknown origin) at 10 uM"}, "NCI-H1975 [22]": {"test_system": "NCI-H1975", "experiment": "Induction in apoptosis in human NCI-H1975 cells assessed as late apoptotic cells at 2.5 uM incubated for 24 hrs by Annexin V-FITC/Propidium Iodide staining based flow cytometry analysis (reference value: 4.46 %)", "assay_type": "functional"}, "[23]": {"experiment": "Acute toxicity in KM mouse assessed as cell damage or necrosis in heart at 100 mg/kg, IG qa administered for 7 days and measured on day 8 by hematoxylin and eosin staining based assay", "assay_type": "organism-based", "details": "in vivo, po, 192 h, time 8 day"}, "NCI-H1975 [24]": {"test_system": "NCI-H1975", "experiment": "Inhibition of colony formation in human NCI-H1975 cells at 2 uM preincubated for 48 hrs followed by media replacement for every 2 days for 14 days by crystal violet staining based microscopic analysis relative to control", "assay_type": "functional"}, "[25]": {"molecular_target": "Proto-oncogene tyrosine-protein kinase receptor Ret (Homo sapiens) (UniProt P07949)", "experiment": "Inhibition of RET (unknown origin) at 10 uM"}, "A549 [26]": {"test_system": "A549", "experiment": "Inhibition of colony formation in human A549 cells overexpressing c-MET preincubated for 48 hrs followed by media replacement for every 2 days for 14 days by crystal violet staining based microscopic analysis", "assay_type": "functional, cell-based", "details": "dose 0.25-2 µM"}, "NCI-H1975 [27]": {"test_system": "NCI-H1975", "experiment": "Induction in apoptosis in human NCI-H1975 cells assessed as early apoptotic cells at 1 uM incubated for 24 hrs by Annexin V-FITC/Propidium Iodide staining based flow cytometry analysis (reference value: 2.54 %)", "assay_type": "functional"}, "[28]": {"molecular_target": "Fibroblast growth factor receptor 3 (Homo sapiens) (UniProt P22607)", "sequence (P22607 23-806 limits assumed)": "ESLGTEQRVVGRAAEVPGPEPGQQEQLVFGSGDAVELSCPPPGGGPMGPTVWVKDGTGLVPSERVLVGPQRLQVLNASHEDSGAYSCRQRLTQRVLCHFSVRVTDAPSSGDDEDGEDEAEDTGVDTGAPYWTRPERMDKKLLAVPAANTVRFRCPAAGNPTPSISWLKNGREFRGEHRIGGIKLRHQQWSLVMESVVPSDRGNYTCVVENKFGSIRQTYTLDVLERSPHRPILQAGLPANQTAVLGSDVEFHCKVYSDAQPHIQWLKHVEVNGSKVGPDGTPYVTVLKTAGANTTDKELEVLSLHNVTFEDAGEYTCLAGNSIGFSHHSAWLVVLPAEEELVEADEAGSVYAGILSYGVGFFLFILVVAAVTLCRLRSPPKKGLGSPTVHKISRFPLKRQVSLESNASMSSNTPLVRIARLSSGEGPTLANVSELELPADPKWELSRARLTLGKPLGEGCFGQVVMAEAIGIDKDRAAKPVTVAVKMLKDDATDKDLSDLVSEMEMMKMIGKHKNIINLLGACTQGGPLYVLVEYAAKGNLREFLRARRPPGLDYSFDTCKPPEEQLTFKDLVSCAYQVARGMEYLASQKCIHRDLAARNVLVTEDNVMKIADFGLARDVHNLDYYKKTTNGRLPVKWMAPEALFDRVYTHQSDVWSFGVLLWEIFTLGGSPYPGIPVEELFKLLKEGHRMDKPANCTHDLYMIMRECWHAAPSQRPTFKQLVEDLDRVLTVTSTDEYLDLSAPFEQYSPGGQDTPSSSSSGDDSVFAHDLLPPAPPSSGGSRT", "experiment": "Inhibition of FGFR3 (unknown origin) at 10 uM"}, "NCI-H1975 [29]": {"test_system": "NCI-H1975", "experiment": "Induction in apoptosis in human NCI-H1975 cells assessed as viable cells at 2.5 uM incubated for 24 hrs by Annexin V-FITC/Propidium Iodide staining based flow cytometry analysis (reference value: 91.58 %)", "assay_type": "functional", "details": "read-out: Activity"}, "[30]": {"molecular_target": "Vascular endothelial growth factor receptor 3 (Homo sapiens) (UniProt P35916)", "experiment": "Inhibition of FLT4 (unknown origin) at 10 uM"}, "A549 [31]": {"test_system": "A549", "experiment": "Induction of cell cycle arrest in human A549 cells overexpressing c-MET assessed as accumulation of cells at G2/M phase at 2.5 uM incubated for 24 hrs by RNase A/propidium iodide staining based flow cytometric analysis (reference value: 12.41 %)", "assay_type": "functional"}, "[32]": {"experiment": "Hemolytic activity in sheep erythrocytes at 128 ug/ml incubated for 2 hr by UV spectrophotometer relative to control", "assay_type": "toxicity, cell-based, Ovis aries, Erythrocyte", "details": "at 128 µg/mL, read-out: Activity"}}, "note": "Active and inactive are the calls of the source. No cut-off for these calls is given here.", "data": [{"smiles": "C=CC(=O)Nc1cc2c(Oc3ccc(NC(=O)n4c(=O)c(-c5ccccc5)c(C)n4C)cc3F)cccc2cc1OC", "values": [{"measurement": "Activity", "setting": "[1]", "value": "> 60", "unit": "U/L"}, {"measurement": "Activity", "setting": "A549 [2]", "value": 6.61, "unit": "%"}, {"measurement": "inhibition", "setting": "[3]", "value": "Active"}, {"measurement": "inhibition at 1 µM", "setting": "A549 [4]", "value": "~50", "unit": "%"}, {"measurement": "Activity", "setting": "[5]", "value": "Non-Toxic"}, {"measurement": "Activity", "setting": "A549 [6]", "value": 6.65, "unit": "%"}, {"measurement": "Activity", "setting": "L02", "value": 0.21, "unit": "%"}, {"measurement": "inhibition at 1 µM", "setting": "NCI-H1975 [7]", "value": "~50", "unit": "%"}, {"measurement": "inhibition", "setting": "[8]", "value": "> 90", "unit": "%"}, {"measurement": "viability at 2.5 µM", "setting": "A549 [9]", "value": 60.1, "unit": "%"}, {"measurement": "Activity", "setting": "A549 [10]", "value": "Dose-Dependent Effect"}, {"measurement": "Activity", "setting": "[11]", "value": "Non-Toxic"}, {"measurement": "inhibition", "setting": "[12]", "value": "Active"}, {"measurement": "Activity", "setting": "NCI-H1975 [13]", "value": "Dose-Dependent Effect"}, {"measurement": "Activity", "setting": "A549 [14]", "value": 57.29, "unit": "%"}, {"measurement": "Activity", "setting": "[15]", "value": "Non-Toxic"}, {"measurement": "Activity", "setting": "NCI-H1975 [16]", "value": 2.49, "unit": "%"}, {"measurement": "inhibition", "setting": "[17]", "value": "inactive"}, {"measurement": "Ratio IC50", "setting": "[18]", "value": 28}, {"measurement": "Activity", "setting": "A549 [19]", "value": "Dose-Dependent Effect"}, {"measurement": "Activity", "setting": "A549 [20]", "value": "Active"}, {"measurement": "inhibition", "setting": "[21]", "value": "inactive"}, {"measurement": "Activity", "setting": "NCI-H1975 [22]", "value": 8.17, "unit": "%"}, {"measurement": "Activity", "setting": "[23]", "value": "Non-Toxic"}, {"measurement": "inhibition at 2 µM", "setting": "NCI-H1975 [24]", "value": "~100", "unit": "%"}, {"measurement": "inhibition", "setting": "[25]", "value": "inactive"}, {"measurement": "inhibition", "setting": "A549 [26]", "value": "Dose-Dependent Effect"}, {"measurement": "Activity", "setting": "NCI-H1975 [27]", "value": 2.77, "unit": "%"}, {"measurement": "inhibition", "setting": "[28]", "value": "inactive"}, {"measurement": "viability at 2.5 µM", "setting": "NCI-H1975 [29]", "value": 85.5, "unit": "%"}, {"measurement": "inhibition", "setting": "[30]", "value": "Active"}, {"measurement": "Activity", "setting": "A549 [31]", "value": 10.98, "unit": "%"}, {"measurement": "hemolysis at 2 h, 128 ug/ml", "setting": "[32]", "value": 5, "unit": "%"}]}]}
